The source of these data is patent publication US20100310561A1, “NATRIURETIC FUSION PROTEINS” (BOEHRINGER INGELHEIM INTERNATIONAL GMBH, priority 2007, published 2010).

Like-named read-outs stand apart in the source and are kept apart here.

For series [1] the following is noted: humans; Potter et al.; cited from earlier work.
For another series, the target named is T1, human NPRA (Homo sapiens, UniProt P16066).
T1 sequence (P16066 33-1061): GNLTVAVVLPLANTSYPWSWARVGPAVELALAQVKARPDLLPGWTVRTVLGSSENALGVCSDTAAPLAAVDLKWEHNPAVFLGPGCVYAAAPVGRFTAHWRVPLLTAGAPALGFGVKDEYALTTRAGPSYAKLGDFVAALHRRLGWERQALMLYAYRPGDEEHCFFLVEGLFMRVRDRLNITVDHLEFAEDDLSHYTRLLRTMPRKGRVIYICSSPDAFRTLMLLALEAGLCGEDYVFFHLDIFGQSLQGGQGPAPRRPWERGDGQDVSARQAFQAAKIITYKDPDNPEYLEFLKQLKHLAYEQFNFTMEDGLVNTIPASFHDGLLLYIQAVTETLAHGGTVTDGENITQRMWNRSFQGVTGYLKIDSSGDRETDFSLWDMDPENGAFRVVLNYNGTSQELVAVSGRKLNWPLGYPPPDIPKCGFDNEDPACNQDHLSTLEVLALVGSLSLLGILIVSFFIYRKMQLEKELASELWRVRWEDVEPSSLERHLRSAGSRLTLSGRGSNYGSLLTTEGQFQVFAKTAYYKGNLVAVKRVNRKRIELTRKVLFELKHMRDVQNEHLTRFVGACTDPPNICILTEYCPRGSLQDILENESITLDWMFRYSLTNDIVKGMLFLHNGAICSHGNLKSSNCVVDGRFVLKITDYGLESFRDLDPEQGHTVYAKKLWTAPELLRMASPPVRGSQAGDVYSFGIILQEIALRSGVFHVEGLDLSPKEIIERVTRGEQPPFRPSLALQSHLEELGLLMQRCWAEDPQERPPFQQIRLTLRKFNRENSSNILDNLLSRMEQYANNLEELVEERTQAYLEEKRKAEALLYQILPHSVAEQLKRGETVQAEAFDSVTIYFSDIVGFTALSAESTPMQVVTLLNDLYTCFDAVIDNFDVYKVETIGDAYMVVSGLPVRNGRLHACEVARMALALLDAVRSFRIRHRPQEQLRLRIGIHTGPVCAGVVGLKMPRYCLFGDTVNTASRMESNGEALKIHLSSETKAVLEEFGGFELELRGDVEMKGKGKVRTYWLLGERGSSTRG
Kind of series: Natriuretic peptide fusion protein induced cGMP assay, human NPRA transfected HEK293 cells. Type of series: cell-based. From the text: Full-length human NPRA, human NPRB, and human […] (NPRC) sequence containing plasmids were purchased from OriGene Technologies, Inc. (Rockville, Md.) then sub-cloned into pcDNA3.1 directional mammalian expression vector (Invitrogen). Insert orientation and nucleotide sequence of each construct was verified by an outside vendor (SeqWright, Inc.). The pcDNA3.1 NPR clones were transfected using Lipofectamine (Invitrogen) into HEK293 cells where stable cell lines expressing human NPRA, human NPRB, or human NPRC are selected using G418. Clones were screened using the natriuretic peptide induced cGMP assay described below. (NPRA clones were treated with human ANP while NPRB clones were treated with human CNP (Sigma)). High cGMP producing clones were expanded. NPRC clones were screened using a ^125I ANP binding assay. ^125I ANP high binders were expanded. […]
Natriuretic peptides of >95% HPLC purity were obtained from Sigma. […] The cGMP concentration was measured using the HitHunter™ cGMP Assay Kit (DiscoveRx Corporation). cGMP production dose response curves were generated with a four parameter logistic equation fitted using the Levenburg Marquardt algorithm in XLfit4.2 data analysis software (ID Business Solutions, Ltd.).
Results 1 from both Labs 1 and 2 were generated by interpreting the raw Relative Luminescence Units (RLU). […]

The test system of another series is Dog NPRA. Description: cGMP assay, canine NPRA expressing 293 cells. The series is classed as cell-based. As to the method:
(§1) Natriuretic peptides of >95% HPLC purity were obtained from Sigma. HEK293 NPRA cells grown to 90% confluence were harvested using HANKS based Cell Dissociation Medium (GIBCO). Cells were washed and resuspended at 3.3×10^5 cells per mL in pre warmed Dulbecco's PBS, pH 7.4, 25 mM HEPES, 0.1% BSA, 500 μM 3-Isobutyl-1-methylxanthine (IBMX) [Assay Buffer]. Assays were performed in Optiplate-96 White Opaque 96-well Microplates (Perkin Elmer). 15 μL of cell suspension is added to 15 μL of 2× fusion protein in Assay Buffer in triplicate and incubated for 20 minutes at 37° C. The cGMP concentration was measured using the HitHunter™ cGMP Assay Kit (DiscoveRx Corporation). cGMP production dose response curves were generated with a four parameter logistic equation fitted using the Levenburg Marquardt algorithm in XLfit4.2 data analysis software (ID Business Solutions, Ltd.).
Human ANP28 peptide was assayed for cGMP production in species specific NPRA transfected 293 or 293T cells. Dose response curves for cGMP production stimulated by human ANP28 peptide in rat NPRA (rNPRA) expressing 293T cells and human NPRA (hNPRA) and canine NPRA (caNPRA) expressing 293 cells are shown in FIG. 2.
The selectivity of the recombinant ANP-Fc fusion proteins was assessed by analyzing their efficacy in NPRB expressing cell lines. […]

For another series, the system named is Monkey NPRA. Kind of series: cGMP assay, monkey NPRA expressing HEK293 cells. The series is classed as cell-based. The following applies: Table 4. As to the method:
as §1
The selectivity of the recombinant ANP-Fc fusion proteins was assessed by analyzing their efficacy in NPRB expressing cell lines. The species cross-reactivity of the ANP-Fc fusion proteins was tested in rat, canine, and monkey NPRA expressing HEK293 cell lines. The ANP-Fc fusions tested have good cross-reactivity in the rat, canine, and monkey NPRA mediated cGMP assays (Table 4). The ANP-Fc fusion proteins have nearly equivalent dose response values when tested in human, dog and monkey expressing NPRA cells. […]

On to BNP: B-type natriuretic peptide, for which the plasma half life entry in series [1] was “approximately 20 minutes”.

With “Wild-type rat ANP: rat atrial natriuretic peptide, differs from human ANP by one amino acid (SLRRSSCFGGRIDRIGAQSGLGCNSFRY) [reference compound]”, the “EC50 compared with human ANP in the human NPRA cGMP assay” value in the series with human NPRA is “slightly higher”.

A word on the EC50: it is the concentration needed to bring the measured effect to its halfway point. Take `CC[C@H](C)[C@@H]1NC(=O)[C@H](CCCNC(=N)N)NC(=O)[C@H](CC(=O)O)NC(=O)[C@H](CCSC)NC(=O)[C@H](CCCNC(=N)N)NC(=O)CNC(=O)CNC(=O)[C@H](Cc2ccccc2)NC(=O)[C@@H](NC(=O)[C@H](CO)NC(=O)[C@H](CO)NC(=O)[C@H](CCCNC(=N)N)NC(=O)[C@H](CCCNC(=N)N)NC(=O)[C@H](CC(C)C)NC(=O)[C@@H](N)CO)CSSC[C@@H](C(=O)N[C@@H](CC(N)=O)C(=O)N[C@@H](CO)C(=O)N[C@@H](Cc2ccccc2)C(=O)N[C@@H](CCCNC(=N)N)C(=O)N[C@@H](Cc2ccc(O)cc2)C(=O)O)NC(=O)CNC(=O)[C@H](CC(C)C)NC(=O)CNC(=O)[C@H](CO)NC(=O)[C@H](CCC(N)=O)NC(=O)[C@H](C)NC(=O)CNC1=O` [Construct 1, ANPXY]: the EC50 stood at 1.3 nM in the series with Dog NPRA (Table 4, read-out: cGMP EC50 (nM) Dog NPRA); 1.34 nM in the series on Dog NPRA (caNPRA 293 cells, read-out: Mean EC50 nM, cGMP-caNPRA 293); 0.5 nM in the series on Monkey NPRA.
